Laboratory results: the supplement of paper PMC11451515

Legend:
P12-Ichikawa [1] = test: cell viability relative to DMSO control; higher = less cytotoxic; settings: 48 h
Summary of the method: (§1)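 Viability was expressed as a per-plate percentage of DMSO wells, with cell-free wells as background. Leukemia cells (NOMO1 or SEM at 500 cells/well, P12-Ichikawa at 1000 cells/well) were adapted for at least four passages in each medium and seeded in 1536-well plates (5 μl). Library compounds in DMSO were pin-dosed over an 11-point threefold series from 47 μM to 0.79 nM, and CellTiter-Glo One luminescence was read after 48 h at 37°C.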

SEM cells [2] = test: as above; settings: 48 h
Summary of the method: as §1

NOMO1 [3] = test: AUC of viability dose-response curve (% viability x log10 dose units); higher = less sensitive; settings: 48 h
Summary of the method: (§2)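 Viability of medium-adapted leukemia cells was measured by CellTiter-Glo One luminescence after 48 h at 37°C with library compounds in DMSO. Doses were 11 threefold steps from 47 μM to 0.79 nM, in 1536-well plates at 500 or 1000 cells/well. Signals were normalised per plate to DMSO and cell-free wells and fitted with a four-parameter log-logistic model on log10 dose. Area under the curve was integrated by trapezoidal rule, with curves exceeding full viability scaled and failed quality-control curves removed.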

P12-Ichikawa [4] = test: as above; settings: 48 h
Summary of the method: as §2

SEM cells [5] = test: as above; settings: 48 h
Summary of the method: as §2

NOMO1 [6] = test: cell viability relative to DMSO control; higher = less cytotoxic; settings: RPMI 5 mM glucose + 10% FBS, 48 h
Summary of the method: as §1

Cc1c(C(=O)Nc2ccc(N3C[C@@H](C)O[C@@H](C)C3)nc2)cccc1-c1ccc(OC(F)(F)F)cc1
Settings | cell viability [%]
P12-Ichikawa [1], RPMI 5 mM glucose + 10% dialyzed FBS, 0.000781 µM | 128
P12-Ichikawa [1], RPMI 5 mM glucose + 10% dialyzed FBS, 0.00234 µM | 119
P12-Ichikawa [1], RPMI 5 mM glucose + 10% dialyzed FBS, 0.00702 µM | 119
P12-Ichikawa [1], RPMI 5 mM glucose + 10% dialyzed FBS, 0.0211 µM | 131
P12-Ichikawa [1], RPMI 5 mM glucose + 10% dialyzed FBS, 0.0632 µM | 131
P12-Ichikawa [1], RPMI 5 mM glucose + 10% dialyzed FBS, 0.19 µM | 126
P12-Ichikawa [1], RPMI 5 mM glucose + 10% dialyzed FBS, 0.569 µM | 124
P12-Ichikawa [1], RPMI 5 mM glucose + 10% dialyzed FBS, 1.71 µM | 104
P12-Ichikawa [1], RPMI 5 mM glucose + 10% dialyzed FBS, 5.12 µM | 48.6
P12-Ichikawa [1], RPMI 5 mM glucose + 10% dialyzed FBS, 15.4 µM | 7.92
P12-Ichikawa [1], RPMI 5 mM glucose + 10% dialyzed FBS, 46.1 µM | 6.12
SEM cells [2], HPLM + 10% dialyzed FBS, 0.000781 µM | 113
SEM cells [2], HPLM + 10% dialyzed FBS, 0.00234 µM | 125
SEM cells [2], HPLM + 10% dialyzed FBS, 0.00702 µM | 116
SEM cells [2], HPLM + 10% dialyzed FBS, 0.0211 µM | 133
SEM cells [2], HPLM + 10% dialyzed FBS, 0.0632 µM | 131
SEM cells [2], HPLM + 10% dialyzed FBS, 0.19 µM | 124
SEM cells [2], HPLM + 10% dialyzed FBS, 0.569 µM | 132
SEM cells [2], HPLM + 10% dialyzed FBS, 1.71 µM | 108
SEM cells [2], HPLM + 10% dialyzed FBS, 5.12 µM | 16.3
SEM cells [2], HPLM + 10% dialyzed FBS, 15.4 µM | 6.58
SEM cells [2], HPLM + 10% dialyzed FBS, 46.1 µM | 4.61

AUC of viability dose-response curve
Settings | NOMO1 [3] | P12-Ichikawa [4] | SEM cells [5]
HPLM + 10% dialyzed FBS | 366 | 349 | 361
RPMI 5 mM glucose + 10% FBS | 382 | 372 | 335
RPMI 5 mM glucose + 10% dialyzed FBS | 408 | 372 | 356

COc1ccc(Cc2nccc3cc(OC)c(OC)cc23)cc1OC
Settings | AUC of viability dose-response curve | cell viability [%]
NOMO1 [3], HPLM + 10% dialyzed FBS | 453 | –
NOMO1 [3], RPMI 5 mM glucose + 10% FBS | 458 | –
NOMO1 [3], RPMI 5 mM glucose + 10% dialyzed FBS | 454 | –
NOMO1 [6], 0.000781 µM | – | 115
NOMO1 [6], 0.00234 µM | – | 118
NOMO1 [6], 0.00702 µM | – | 124
NOMO1 [6], 0.0211 µM | – | 117
NOMO1 [6], 0.0632 µM | – | 105
NOMO1 [6], 0.19 µM | – | 108
NOMO1 [6], 0.569 µM | – | 138
NOMO1 [6], 1.71 µM | – | 110
NOMO1 [6], 5.12 µM | – | 103
NOMO1 [6], 15.4 µM | – | 114
NOMO1 [6], 46.1 µM | – | 23.3
P12-Ichikawa [4], HPLM + 10% dialyzed FBS | 462 | –
P12-Ichikawa [4], RPMI 5 mM glucose + 10% FBS | 466 | –
P12-Ichikawa [4], RPMI 5 mM glucose + 10% dialyzed FBS | 458 | –
SEM cells [5], HPLM + 10% dialyzed FBS | 469 | –
SEM cells [5], RPMI 5 mM glucose + 10% FBS | 460 | –
SEM cells [5], RPMI 5 mM glucose + 10% dialyzed FBS | 465 | –

cell viability [%]
Settings | HPLM + 10% dialyzed FBS | RPMI 5 mM glucose + 10% FBS | RPMI 5 mM glucose + 10% dialyzed FBS
P12-Ichikawa [1], 0.000781 µM | 122 | – | 121
P12-Ichikawa [1], 0.00234 µM | 120 | – | 114
P12-Ichikawa [1], 0.00702 µM | 117 | – | 126
P12-Ichikawa [1], 0.0211 µM | 120 | – | 126
P12-Ichikawa [1], 0.0632 µM | 125 | – | 123
P12-Ichikawa [1], 0.19 µM | 122 | – | 126
P12-Ichikawa [1], 0.569 µM | 119 | – | 121
P12-Ichikawa [1], 1.71 µM | 116 | – | 119
P12-Ichikawa [1], 5.12 µM | 115 | – | 105
P12-Ichikawa [1], 15.4 µM | 107 | – | 111
P12-Ichikawa [1], 46.1 µM | 96.5 | – | 78.5
SEM cells [2], 0.000781 µM | 105 | 110 | 109
SEM cells [2], 0.00234 µM | 126 | 125 | 107
SEM cells [2], 0.00702 µM | 111 | 117 | 110
SEM cells [2], 0.0211 µM | 131 | 120 | 110
SEM cells [2], 0.0632 µM | 126 | 131 | 99.5
SEM cells [2], 0.19 µM | 124 | 130 | 109
SEM cells [2], 0.569 µM | 127 | 118 | 105
SEM cells [2], 1.71 µM | 128 | 109 | 118
SEM cells [2], 5.12 µM | 134 | 123 | 94
SEM cells [2], 15.4 µM | 121 | 110 | 111
SEM cells [2], 46.1 µM | 88 | 53.9 | 54.3

OCc1ccccc1O[C@@H]1O[C@H](CO)[C@@H](O)[C@H](O)[C@H]1O
Settings | AUC of viability dose-response curve | cell viability [%]
NOMO1 [3], HPLM + 10% dialyzed FBS | 447 | –
NOMO1 [3], RPMI 5 mM glucose + 10% FBS | 463 | –
NOMO1 [3], RPMI 5 mM glucose + 10% dialyzed FBS | 458 | –
NOMO1 [6], 0.000781 µM | – | 120
NOMO1 [6], 0.00234 µM | – | 116
NOMO1 [6], 0.00702 µM | – | 139
NOMO1 [6], 0.0211 µM | – | 128
NOMO1 [6], 0.0632 µM | – | 126
NOMO1 [6], 0.19 µM | – | 139
NOMO1 [6], 0.569 µM | – | 138
NOMO1 [6], 1.71 µM | – | 127
NOMO1 [6], 5.12 µM | – | 129
NOMO1 [6], 15.4 µM | – | 106
NOMO1 [6], 46.1 µM | – | 98.7
P12-Ichikawa [4], HPLM + 10% dialyzed FBS | 464 | –
P12-Ichikawa [4], RPMI 5 mM glucose + 10% FBS | 448 | –
P12-Ichikawa [4], RPMI 5 mM glucose + 10% dialyzed FBS | 459 | –
SEM cells [5], HPLM + 10% dialyzed FBS | 430 | –
SEM cells [5], RPMI 5 mM glucose + 10% FBS | 372 | –
SEM cells [5], RPMI 5 mM glucose + 10% dialyzed FBS | 426 | –

SEM cells [2], RPMI 5 mM glucose + 10% dialyzed FBS
Settings | cell viability [%]
0.000781 µM | 101
0.00234 µM | 121
0.00702 µM | 118
0.0211 µM | 121
0.0632 µM | 136
0.19 µM | 148
0.569 µM | 121
1.71 µM | 117
5.12 µM | 97.5
15.4 µM | 61.8
46.1 µM | 48.8
